Laboratory results published in paper PMC2362731, “Phase I study of Carzelesin (U-80,244) given (4-weekly) by intravenous bolus schedule” (British Journal of Cancer, 1999).

Tests used:
[1] = system: granulocytes (ANC), white blood cells (WBC), platelets; test: Pharmacokinetic-pharmacodynamic relationship of bone marrow toxicity (%decr vs AUC); assay type: in vivo
Description: Carzelesin (U-80,244, Figure 1A) is a cyclopropylpyrroloindole (CPI) prodrug analogue of CC-1065. […] CPI drugs are a class of compounds with unique DNA interactive properties. These agents fit into the minor groove region of DNA, and the CPI function in the molecule mediates a covalent binding to the N3 position of adenine in A-T rich regions, thus forming DNA adducts in a sequence selective fashion (Hurley et al, 1984; Reynolds et al, 1985). Three new CPIs have now been developed. […] Bizelesin differs from the classical CPI drugs in that it contains two chloromethyl functions, which are both converted (via intramolecular rearrangements) to the CPI alkyl- ating species that interact with DNA. Consequently, this agent is capable of forming DNA interstrand cross-links (Lee et al, 1991). […] Therefore, efforts were directed to modu- late the alkylation rate by the preparation of CPI prodrugs that would require chemical or enzymatic conversion. The activation of Carzelesin is a two-step reaction with hydrolysis of the phenyl- urethane substituent to form the intermediate compound U-76,073, followed by ring closure to form the active product U-76,074 (Figure 1B). […] This higher efficacy may be related to the pharmacologic features of the compound. […] Phase I study of Carzelesin (U-80,244) given (4-weekly) by intravenous bolus schedule A Awada1, CJA Punt2, MJ Piccart1, O Van Tellingen3, L Van Manen2, J Kerger1, Y Groot4, J Wanders4, J Verweij5 and DJTh Wagener2 1Institut Jules Bordet, Bd de Waterloo 125, 1000 Brussels, Belgium; 2University Hospital, Geert Grooteplein 8, Box 9101, 6500 HB Nijmegen, The Netherlands; 3The Netherlands Cancer Institute (Antoni van Leeuwenhoek Huis), Plesmanlaan 121, 1066 CX Amsterdam, The Netherlands; 4European Organization for Research and Treatment of Cancer - New Drug Development Office, PO Box 7057, Amsterdam, The Netherlands; 5Rotterdam Cancer Institute, Groene Hilledijk 301, 3075 EA Rotterdam, The Netherlands; on behalf of the EORTC Early Clinical Studies Group and EORTC NDDO Summary Carzelesin is a cyclopropylpyrroloindole analogue which acts as a DNA-sequence-specific alkylating agent. In this phase I study, Carzelesin was given as a 4-weekly 10 min IV infusion to 51 patients with advanced solid tumours. Patients received a median of two courses (range 1-5) at one of nine dose levels: […]. According to NCI-CTC criteria, non- haematological toxicities (grade 1/2) included fever, nausea and vomiting, mucositis and anorexia, none of which was clearly dose related. […] The concentration of U-76,074 (active metabolite) extended above the lower limit of quantitation (1 ng ml-1) for short periods of time and only at the higher dose levels. […]

[2] = system: tumour cells cultured in vitro; parameters: method as in Li et al, 1992; conditions: compared with adozelesin; ref Li et al, 1992; cited from earlier work
mouse = conditions: equivalent of mouse LD10; ref EORTC-NDDO, 1992; cited from earlier work

CCN(CC)c1ccc2cc(C(=O)Nc3ccc4[nH]c(C(=O)N5C[C@@H](CCl)c6c5cc(OC(=O)Nc5ccccc5)c5[nH]cc(C)c65)cc4c3)oc2c1 [Carzelesin]
AUC in other patients with marked toxicity ([1]; human, in vivo): less than 20 ng ml.h-1
highest AUC observed in this series ([1]; patient at 300 with only very modest toxicity): 43.2 ng·mL/h
%decr in ANC ([1]; second course, exception patient treated at 300): 82%
potency against tumour cells cultured in vitro [2]: less potent than adozelesin
MELD10 (mouse): 840 g m-2
